The text below walks through data of publication PMC4535766, “Antiprotozoal Activity Profiling of Approved Drugs: A Starting Point toward Drug Repositioning” (PLoS ONE, 2015).

Read-outs that look alike come from different tables or passages of the source. Where only a bound is given, the exact number is not on record here.

In data set [1] the test system is T. b. rhodesiense strain STIB 900, trypomastigotes. In words: In vitro activity against T. b. rhodesiense, serial drug dilution assay. Particulars: for IC50: Trypanosoma brucei. Here is the method: (§1) Drug stock solutions (10mg/ml) were in DMSO (100%). […] Selectivity index (SI) was calculated as IC50 L6 cells/IC50 parasite.
Data set [2] is described as follows: Cytotoxicity on macrophages infected with L. donovani. It is filed as cell-based, mouse. Particulars: mouse.
Data set [3] relates to axenic amastigotes of L. donovani, strain MHOM-ET-67/L82. In words: In vitro activity against L. donovani axenic amastigotes, serial drug dilution assay. The class given is cell-based, Leishmania donovani. Particulars: Leishmania donovani. Here is the method:
as §1

A short description of another data set: in vitro. Particulars: rat. The protocol:
as §1

The subject of data set [4] is T. cruzi, strain Tulahuen C4, intracellular amastigotes. In words: microbe, parasite or virus in culture. Particulars: for IC50: Trypanosoma cruzi, TULAHUEN
The protocol:
as §1

In data set [5] the test system is intracellular amastigotes of L. donovani strain MHOM-ET-67/L82. In words: Activity against Leishmania donovani intracellular amastigotes in mouse peritoneal macrophages. Particulars: Leishmania donovani, Peritoneal macrophage, in Mus musculus. The method in brief:
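Axenic amastigotes grown at pH 5.4 infected mouse peritoneal macrophages for 4 h before free parasites were washed off. Next day, seven 3-fold drug dilutions (30–0.04 μg/ml) were added for 96 h. Giemsa-stained infected macrophages were counted, burden reduction was taken vs untreated controls, and IC50 came from linear regression.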

A further data set relates to P. falciparum strain K1. In words: In vitro activity against P. falciparum, serial drug dilution assay. Particulars: for IC50: Plasmodium falciparum. The protocol: as §1
Where [6] appears, read: infected macrophages, read-out: Cytotox. mac.inf. IC50.
The mark [7] stands for this setting: L. donovani axenic amastigotes, read-out: L. don. axen. IC50.
The mark [8] stands for this setting: read-out: L. don. intracell IC50.
Setting [9] is: macrophages infected with L. donovani, read-out: IC50 Cytotox. mac.inf.
[10] abbreviates: axenic amastigotes, strain MHOM-ET-67/L82, means of two independent assays, read-out: IC50 L. don. axen.
The mark [11] stands for this setting: 96 h, read-out: IC50 L. don. intracell.
Setting [12] is: L6 cells, IC50 Cytotox. L6, L6 cells, means of two independent assays.

On to `CN(C)c1ccc(O)c2c1C[C@H]1C[C@H]3[C@H](N(C)C)C(O)=C(C(N)=O)C(=O)[C@@]3(O)C(O)=C1C2=O` [Minocycline], for which the IC50 in data set [1] (read-out: T. b. rhod. IC50) was 36.6 µM; in data set [3] (setting [7]), 45.7 µM; in “in vitro” (Cytotox. L6 IC50), 9.42 µM; in data set [4] (read-out: T. cruzi IC50), 22.3 µM; in data set [5] (setting [8]), over 21.9 µM; with P. falciparum strain K1 (K1, read-out: P. falc. IC50) it was 3.58 µM. In addition, the IC50 at 96 h in data set [2] (setting [6]) is over 21.9 µM.
Take `Nc1nc2c(ncn2CCC(CO)CO)c(=O)[nH]1` [Penciclovir]: the IC50 is over 395 µM in data set [1] (read-out: IC50 T. b. rhod.); over 395 µM in data set [3] (setting [10]); 220 µM in “in vitro” (IC50 Cytotox. L6); 254 µM in data set [4] (read-out: IC50 T. cruzi); over 118 µM in data set [5] (setting [11]); 169 µM in the data set with P. falciparum strain K1 (K1, read-out: IC50 P. falc. K1). In addition, the IC50 at 96 h in data set [2] (setting [9]) was over 118 µM.
Regarding `CN1CC(=O)N2[C@H](c3ccc4c(c3)OCO4)c3[nH]c4ccccc4c3C[C@@H]2C1=O` [Tadalafil], the IC50 in data set [1] (read-out: IC50 T. b. rhod.) was 97.6 µM; in data set [3] (setting [10]), 40.1 µM; in the data set “in vitro” (IC50 Cytotox. L6) it was 221 µM; in data set [4] (read-out: IC50 T. cruzi), 8.6 µM; in data set [5] (setting [11]), over 77 µM; in the data set on P. falciparum strain K1 (K1, read-out: IC50 P. falc. K1) it was over 12.8 µM. For the same compound, the IC50 at 96 h in data set [2] (setting [9]) is over 77 µM. In addition, in data set [4] (rat), the “Selectivity index: IC50 Cytotoxicity L6/ IC50 T. cruzi” value was found to be 26. Moreover, the selectivity ratio in data set [4] (rat, Selectivity index: IC50 Cytotoxicity L6/ IC50 T. cruzi) is over 26.
In the case of `CN1CCC(=C2c3ccccc3CC(=O)c3sccc32)CC1` [Ketotifen], the IC50 was 15.2 µM in data set [1] (read-out: IC50 T. b. rhod.); over 291 µM in data set [3] (setting [10]); 147 µM in “in vitro” (setting [12]); 141 µM in data set [4] (read-out: IC50 T. cruzi); over 97 µM in data set [5] (setting [11]); 0.75 µM in the data set on P. falciparum strain K1 (K1, read-out: IC50 P. falc. K1). The IC50 at 96 h in data set [2] (mouse peritoneal macrophages infected with L. donovani, macrophages infected with L. donovani, read-out: IC50 Cytotox. mac.inf.) was over 97 µM. Further, the “Activity against P. falciparum (in words)” value in the data set with P. falciparum strain K1 (in vitro) is listed as “selective activities”. Moreover, the selectivity ratio with P. falciparum strain K1 (rat, Selectivity index: IC50 Cytotoxicity L6/ IC50 P. falciparum) is 196.
Regarding `C#C[C@]1(O)CC[C@H]2[C@@H]3CCC4=Cc5oncc5C[C@]4(C)[C@H]3CC[C@@]21C` [Danazol], the IC50 is 45.9 µM in data set [1] (read-out: T. b. rhod. IC50); 10.2 µM in data set [3] (setting [7]); 32 µM in the data set “in vitro” (Cytotox. L6 IC50); 6.25 µM in data set [4] (read-out: T. cruzi IC50); over 29.6 µM in data set [5] (setting [8]); 14.1 µM in the data set on P. falciparum strain K1 (K1, read-out: P. falc. IC50). Besides, the IC50 at 96 h in data set [2] (setting [6]) was over 29.6 µM.
As for `CN1CCN(CCCN2c3ccccc3Sc3ccc(C(F)(F)F)cc32)CC1` [Trifluoperazine], the IC50 is 1.23 µM in data set [1] (read-out: IC50 T. b. rhod.); 52.9 µM in data set [3] (setting [10]); 11 µM in “in vitro” (setting [12]); 10.1 µM in data set [4] (read-out: IC50 T. cruzi); over 7.36 µM in data set [5] (setting [11]); 1.48 µM with P. falciparum strain K1 (K1, read-out: IC50 P. falc. K1). Also, the IC50 at 96 h in data set [2] (setting [9]) was 24.5 µM.
As to `Cc1ncc([N+](=O)[O-])n1CCO` [Metronidazole], the IC50 is 338 µM in data set [1] (read-out: IC50 T. b. rhod.); 491 µM in data set [3] (setting [10]); 339 µM in “in vitro” (IC50 Cytotox. L6); 279 µM in data set [4] (read-out: IC50 T. cruzi); over 175 µM in data set [5] (setting [11]); 277 µM with P. falciparum strain K1 (K1, read-out: IC50 P. falc. K1). Moreover, the “Activity against T. b. rhodesiense (in words)” value in data set [1] (in vitro) is “inactive”. The IC50 at 96 h in data set [2] (setting [9]) was over 175 µM.
Take `CCn1cc(C(=O)O)c(=O)c2cc(F)c(N3CCNCC3)nc21` [Enoxacin]: the IC50 in data set [1] (read-out: T. b. rhod. IC50) was 113 µM; in data set [3] (setting [7]), over 312 µM; in “in vitro” (Cytotox. L6 IC50), 25 µM; in data set [4] (read-out: T. cruzi IC50), 163 µM; in data set [5] (setting [8]), over 93.7 µM; in the data set on P. falciparum strain K1 (K1, read-out: P. falc. IC50), 76.8 µM. Further, the IC50 at 96 h in data set [2] (setting [6]) is over 93.7 µM.
Take `O=C(O)c1cn(C2CC2)c2cc(N3CCNCC3)c(F)cc2c1=O` [Ciprofloxacin]: the IC50 in data set [1] (read-out: T. b. rhod. IC50) was 35.9 µM; in data set [3] (setting [7]), over 302 µM; in the data set “in vitro” (Cytotox. L6 IC50), 118 µM; in data set [4] (read-out: T. cruzi IC50) it was 92 µM; in data set [5] (setting [8]), over 90.5 µM; in the data set with P. falciparum strain K1 (K1, read-out: P. falc. IC50), 13.2 µM. For the same compound, the IC50 at 96 h in data set [2] (setting [6]) is over 90.5 µM.

In general, IC50 refers to the concentration at which inhibition is half-maximal.
